Results taken from US9320271B2, “Microbial composition” (Rohm and Haas Company, priority 2011, dated 2016).
“And” between values parts separate entries of the source, which are not always exact repeats. Identical values can stand only once.

Key:
[1] = test system: Escherichia coli (E. coli—ATCC #10536); test: Synergy test: high resolution MBC microtiter plate assay, phosphate buffer containing 35% dipropylene glycol, 15 seconds contact; format: cell-based; conditions: E. coli 10536
Excerpt: The concentrations and ratios may also vary under different test conditions or with different test methods.
One measure of synergy is the industrially accepted method described by Kull, F. C.; Eisman, P. C.; Sylwestrowicz, H. D, and Mayer, R. L., in Applied Microbiology 9:538-541 (1961), using the ratio determined by the formula: […]=Synergy Index (“SI”) wherein; QA=concentration of compound A (first component) in percent, acting alone, which produced an end point (MBC of Compound A). Qa=concentration of compound A in percent, in the mixture, which produced an end point. QB=concentration of compound B (second component) in percent, acting alone, which, produced an end point (MBC of Compound B). Qb=concentration of compound B in percent, in the mixture, which produced an end point.
When the sum of Qa/QA and Qb/QB is greater than one, antagonism is indicated. […] The lower the SI, the greater is the synergy shown by that particular mixture. The minimum biocidal concentration (MBC) of a microbicide is the lowest concentration tested under a specific set of conditions that provides complete kill of the tested microorganisms.
Synergy tests were conducted using standard microliter plate assays with phosphate buffer containing 35% dipropylene glycol (DPG). In this method, a wide range of combinations of chemicals was tested by conducting high resolution MBC assays of Component (A) in the presence of various concentrations of Component (B). High resolution MBCs were determined by adding varying amounts of microbicide to one column of a microliter plate and doing subsequent […] dilutions using an automated liquid handling, system to obtain a series of closely spaced endpoints. The MBC plate was inoculated one column at a time with the test microorganism. An aliquot of the inoculated well was transferred at 15 seconds to a plate containing a neutralizing agent (D/E Neutralizing Broth), mixed and held for 5 minutes before being transferred to a growth plate containing trypticase soy broth (TSB). The TSB plate was incubated at 37° C. and read for the presence/absence of growth at 24 hours. The lowest level tested that provided complete kill (as evidenced by no growth in the microtitre plate) of the test organisms in 15 seconds is the minimum biocidal concentration (MBC).
The synergy of the combinations of the present invention was determined against a bacterium, Escherichia coli (E. coli—ATCC #10536), at a concentration of approximately 1×10^8 it bacteria per mL. This microorganism is representative of natural contaminants in many consumer and industrial applications.

[2] = test system: Staphylococcus aureus (10788 strain); test: 15 second contact kill test / antimicrobial efficacy of actives against S. aureus in water; format: cell-based
Procedure: Selected materials were also tested against a representative Grant positive Staphylococcus aureus. An overnight culture of Staphylococcus aureus (10788 strain) was inoculated onto a […] Soy Agar (TSA) plate and grown for ca. 18 hrs at 37° C. The culture S. aureus was washed from the plate using sterile saline (0.85% NaCl) solution and a sterile spreader and suspended in 50 ml saline. This suspension was separated into equal volumes and centrifuged at 4000 rpm for 15 minutes. […] Here, OD620 indicates the absorbance of a sample in a cuvette of 1.0 cm path length at a wavelength of 620 nm. This bacterial stock was used for assaying against antimicrobial actives (in triplicate). The following assay describes the testing of 8 materials using 6 dilutions across half of a 96-well micro titre plate (MTP). Using this approach it is possible to assay 16 actives (without replicates) with one full dilution plate, replicating this set up in two halves of the plate columns, 1-6 and 7-12. 1M solutions of the test actives were prepared in dimethylsulphoxide (DMSO). […] Aliquots (270 μl) of the materials at 1.11 times the final concentration were dispensed into the wells of the MTP along one column (A1-H1). This MTP was labelled as the “Screening plate”. In another MTP, labelled as the “Dilution plate”, […] of D/E neutralising solution from DIFCO Composition was added to column 1. The composition of the neutralising solution was as follows: pancreatic digest of casein, 5.0 g/L; […] Dextrose, 10 g/L, sodium thioglycollate, 1.0 g/L, sodium thiosulphate, 6.0 g/L; sodium bisulphite, 2.5 g/L; […] […] From the colony number in this segment, NMBS is calculated by the formula: NMBS=log {Ncol·10^DF·100/3} Here, Ncol is the colony count, and DF is the dilution factor taken from the MTP-well corresponding to the TSA plate segment (i.e. DF may range from 1 for the quench, to 6 for the highest dilution). […] Here, OD620 indicates the absorbance of a sample in a cuvette of 1.0 cm path length at a wavelength, of 620 nm. […]

SMILES: C=C(C)C1CC=C(CO)CC1 (stereo not shown) [(4-(prop-1-en-2-yl)cyclohex-1-enyl)methanol]
- SI (Synergy Index) ([1]; at Qa and Qb, less than one = synergy): 1.00
- MBC of the component acting alone (QA / QB; Qa or Qb where the other component is 0) ([1]; complete kill in 15 seconds, component alone): 0.5 weight % and 0.3 weight %
- S. aureus 6538 Log Reduction ([2]; 0.2% perillyl alcohol alone): 0.22
- S. aureus 6538 Log Reduction ([2]; 0.25 Perillyl alcohol alone): 0.5
